The values below are quoted from earlier work in patent publication US11439614B2, “Fish egg extracts, omega-3 lipid-based compositions and uses thereof” (BIOFLASH INC., priority 2017, dated 2022).

The test system of the series is ADHD symptoms.

Consider `[Mg+2]` [magnesium], for which, for the setting “200 mg daily for 6 months, 75 children with ADHD, vs conventional treatment (Starobat-Hermelin et al, 1997)”, the Hyperactivity entry is “decreased Hyperactivity”.
Turning to `O=S(=O)([O-])[O-].[Zn+2]` [zinc sulfate], the “Help for children with ADHD” value (150 mg for 12 weeks alone or 55 mg for 6 weeks with a conventional drug, 440 children) is on record as “could significantly help children with this condition”.
